Test results from article PMC8456950, “Structure‐Guided Design of G‐Protein‐Coupled Receptor Polypharmacology” (Angewandte Chemie (International Ed. in English), 2021).

Assays:
[1] = molecular target: T1, Human A2AAR (Homo sapiens, UniProt P29274); experiment: A2AAR competition binding ([3H]-ZM241385 displacement); set-up: expressed in transfected cells; host or cells: HeLa-A2AAR cell line (membranes); conditions: for A2AAR % displacement at 10 μM: 10 μM compound, mean±SEM of three experiments; for Ki: radioligand displacement, mean±SEM of three experiments in duplicate, read-out: A2AAR binding affinity Ki
Protocol: Binding assays. Human A2AAR competition binding experiments were carried out in multiscreen GF/C 96-well plates (Millipore, Madrid, Spain) pretreated with binding buffer (50 mM Tris-HCl, 1 mM EDTA, 10 mM MgCl2, 2 U/ml adenosine deaminase, pH=7.4).
Each well contained 5 µg of membranes from a He l a-A2AAR cell line (protein concentration […]
compound studied. Non-specific binding was determined in the presence of 50 µM NE C A (Sigma E2387). The reaction mixture (200 µl/well) was incubated at 25 °C for 30 min, after which it was filtered and washed four times with 250 µl wash buffer (50 mM Tris -HCl, 1 mM EDTA, 10 mM MgCl 2, pH=7. 4) before measuring in a microplate beta scintillation counter (Microbeta Trilux, PerkinElmer, Madrid, Spain). Three independent experiments were carried out to calculate K i values (n=3). […]

[2] = molecular target: T2, Human D2R (Homo sapiens, UniProt P14416); experiment: D2R competition binding ([3H]-spiperone displacement); conditions: for D2R % displacement at 10 μM: 10 μM compound, mean±SEM of three experiments; for Ki: read-out: D2R binding affinity Ki
T2 construct: expressed in transfected cells; host or cells: CHO-D2R #S20 cell line (membranes)
Protocol: Human D2R competition binding experiments w ere carried out in polypropylene 96-well plates. Each well contained 10 µg of membranes from a CHO-D2R #S20 cell line (protein concentration of 3241 µg/ml), 0.4 nM [3H]-spiperone (80. 2 Ci/mmol, 1 mCi/ml, Perkin […]
The reaction mixture (250 µl/well) was incubated at 25°C for 120 min , after which 200 µL was transferred to a GF/C 96 -well plate (Millipore, Madrid, Spain) pretreated with 0. 5% of PEI and treated with binding buffer (50 mM Tris-HCl, 1 mM EDTA, 5 mM MgCl2, 5 mM KCl, 120 mM NaCl, pH=7.4). The […]
samples were filtered and washed four times with 250 µl wash buffer (50 mM Tris-HCl, 0.9% NaCl, pH=7.4) before measuring in a microplate beta scintillation counter (Microbeta Trilux, PerkinElmer, Madrid, Spain). Three independent exp eriments were carried out to calculate Ki values (n=3). […]

[3] = molecular target: T2, Human D2R; experiment: D2R functional cAMP (HTRF) assay in CHO-D2 #S20 cells; format: cell-based; conditions: for EC50: cAMP HTRF, CHO-D2 cells, forskolin 10 µM, mean±SEM n=3; for Emax: relative to the maximal effect of dopamine
Protocol: KB=I C50/(1+([NECA]/EC50 NECA)).
Functional assays for the human D2R were carried out in a CHO-D2 #S20 cell line. 5,000 cells were seed ed in 30 µl of Opti-ME M (Invitrogen 11058) and 500µM IBMX (Sigma 17018) on a 96-well isoplate (PerkinElmer 6005030). The studied compounds wer e then added and incubated for 10 min at 37 °C with gentle stirring (150 rpm). Then, 10 µM […]
forskolin (Sigma 17018) was added and incubated for 5 min at 37 °C with gentle stirring (150 rpm). Reagents (#CISBIO 62AM4PEC) were added and, after incubation for 60 min at rt with gentle stirring (90 rpm) and protected from light, homogeneous time resolved fluorescence (HTRF, λEx: 320 nm; λEm: 620-665 nm) from each well was measured using a Tecan Infinite M1000 Pro. Data were normalized to the maximum effect of dopamine. EC50 and Ema x values were obtained after fitting the d ata to a four -parameter logistic equatio n using Prism V2. 1 (Graph Pad Inc, Chicago, USA) . […]

[4] = molecular target: T3, Human A1AR (Homo sapiens, UniProt P30542); experiment: A1AR competition binding ([3H]-DPCPX); conditions: 10 µM compound, n=2
T3 construct: expressed in transfected cells; host or cells: CHO-A1AR cell line (membranes)
T3 sequence (P30542 1-326): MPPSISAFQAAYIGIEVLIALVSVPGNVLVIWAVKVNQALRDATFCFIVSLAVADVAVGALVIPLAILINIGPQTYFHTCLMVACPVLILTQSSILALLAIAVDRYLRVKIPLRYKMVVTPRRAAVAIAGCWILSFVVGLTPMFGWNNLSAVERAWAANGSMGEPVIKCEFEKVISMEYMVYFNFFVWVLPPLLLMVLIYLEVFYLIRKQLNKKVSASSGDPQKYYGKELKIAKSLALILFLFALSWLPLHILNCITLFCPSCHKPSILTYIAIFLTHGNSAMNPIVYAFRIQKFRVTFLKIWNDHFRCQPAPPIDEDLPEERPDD
Protocol: Human A1AR competition binding experiments were carried out in multiscreen GF/C 96 -well plates (Millipore, Madrid, Spain) pretreated with assay buffer ( 20 mM Hepes, 100 mM NaCl, 10 mM MgCl2, 2 U/ml adeno sine deamina se, pH=7.4). Each well contained 5 µg of membranes from a CHO-A1AR cell line, 1 nM [3H]-DPCPX (137 Ci/mmol, 1 mCi/Ml, Perkin Elmer NET974001MC), and the compound studied. Non-specific binding was determined in the presence of R-PIA 10 µM (Sigma P4532). The reaction mixture (200 µl/well) was incubated at 25°C for 60 min. The samples were then filtered and washed four times with 250 µl wash buffer (20 mM Hepes, 100 mM NaCl, 10 mM MgCl2, pH=7.4) before measuring in a microplate beta scintillati on counter (Microbeta Trilux, PerkinElmer, Madrid, Spain). Two independent experiments were carried out to calculate K i values (n=2). […]

[5] = molecular target: T1, Human A2AAR; experiment: A2AAR functional assay, inhibition of NECA-elicited cAMP production in CHO-A2A cells; format: cell-based; set-up: expressed in transfected cells; conditions: mean±SEM n=3
Protocol: Functional assays. For the human A2AAR, functional experiments measuring cAMP production were carried out in CHO-A2A cell line. The day before the assay, the cells were seeded on a 96-well culture plate (Falcon 353072). The cells were washed with wash buffer (Dulbecco’s modified eagle’s medium nutrient mixture F-12 ham (Sigma D8062), 25 mM Hepes; pH=7.4). Wash buffer was then replaced by incubation buffer (Dulbecco’s modified eagle’s medium nutrient mixture F-12 ham (Sigma D8062), 25 mM Hepes, 20 µM Rolipram, pH=7.4). The studied compounds wer e added and incubated at 37 °C for 15 min. After incubation, NECA (Sigma E2387) was added in several concentrations and incubated at 37 °C for 15 min. After incubation, the amount of cAMP was determined using the cAMP Biotrak Enzymeimmunoassay (EIA) System Kit (GE Healthcare RPN225). Data were adjusted to non-linear fitting by using Prism V2.1 (GraphPad Inc, Chicago USA). K B values were calculated from the IC50 values obtained for each compound by using the formula:
KB=I C50/(1+([NECA]/EC50 NECA)). […]

[6] = radioligand displacement, mean±SEM of three experiments in duplicate

T1 sequence (P29274 whole entry): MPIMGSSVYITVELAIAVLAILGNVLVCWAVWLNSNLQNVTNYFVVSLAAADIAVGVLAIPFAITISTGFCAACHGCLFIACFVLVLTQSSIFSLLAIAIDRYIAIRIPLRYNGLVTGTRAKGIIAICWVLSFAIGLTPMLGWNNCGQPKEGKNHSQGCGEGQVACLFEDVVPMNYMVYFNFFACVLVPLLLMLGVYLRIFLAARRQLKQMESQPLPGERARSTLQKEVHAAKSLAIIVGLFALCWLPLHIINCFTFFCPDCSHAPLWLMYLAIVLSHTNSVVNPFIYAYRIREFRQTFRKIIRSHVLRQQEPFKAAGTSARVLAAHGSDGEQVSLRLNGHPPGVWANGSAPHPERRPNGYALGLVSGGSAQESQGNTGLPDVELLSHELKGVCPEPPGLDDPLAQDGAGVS
T2 sequence (P14416 whole entry): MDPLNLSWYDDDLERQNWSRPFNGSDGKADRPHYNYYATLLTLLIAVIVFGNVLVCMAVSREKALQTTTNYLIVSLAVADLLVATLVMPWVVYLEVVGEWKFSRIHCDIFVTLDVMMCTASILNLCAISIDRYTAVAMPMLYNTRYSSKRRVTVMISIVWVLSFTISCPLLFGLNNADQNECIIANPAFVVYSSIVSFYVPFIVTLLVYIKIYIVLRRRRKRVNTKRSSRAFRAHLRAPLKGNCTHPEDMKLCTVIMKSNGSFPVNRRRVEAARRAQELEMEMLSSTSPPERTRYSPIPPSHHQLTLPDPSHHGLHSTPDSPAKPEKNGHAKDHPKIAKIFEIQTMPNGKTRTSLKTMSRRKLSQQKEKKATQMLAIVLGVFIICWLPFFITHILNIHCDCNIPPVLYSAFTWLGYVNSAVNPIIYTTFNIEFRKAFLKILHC

Compound | A2AAR % displacement at 10 μM [1] | Ki [1] | Ki [2, 6] | EC50 [3] | Emax [3] | further results
Cc1cccc2sc(NC(=O)CCCCN(C)C3Cc4ccccc4C3)nc12 [Compound 2] | significant radioligand displacement | 1200 ± 100 nM | 900 ± 80 nM | 9700 ± 3800 nM | 93 ± 12% | D2R % displacement at 10 μM [2]: significant radioligand displacement; D2R binding affinity Ki [2, 6]: submicromolar
CN(CCCCNc1nc(-c2ccccc2)nc2[nH]ccc12)C1Cc2ccccc2C1 [Compound 3] | significant radioligand displacement | 5600 ± 900 nM | 290 ± 30 nM |  |  | D2R % displacement at 10 μM [2]: significant radioligand displacement
CCOc1cc(C)nc(NCCCCN(C)C2Cc3ccccc3C2)n1 [Compound 4] | significant radioligand displacement | 8400 ± 1300 nM | 330 ± 30 nM |  |  | D2R % displacement at 10 μM [2]: significant radioligand displacement
Cc1nc(NC(=O)CCCCN(C)C2Cc3ccccc3C2)sc1C [Compound 5] | 3 ± 2% |  | 680 ± 50 nM |  |  | 
Cc1ccc(NC(=O)CCCCN(C)C2Cc3ccccc3C2)nc1 [Compound 6] | 7 ± 4% |  | 670 ± 60 nM |  |  | 
CN(C)c1ncnc(NC(=O)CCCCN(C)C2Cc3ccccc3C2)n1 [Compound 7] | 4 ± 3% |  |  |  |  | 
CN(CCCCC(=O)Nc1nc2ncccc2[nH]1)C1Cc2ccccc2C1 [Compound 8] | 5 ± 1% |  | 80 ± 10 nM |  |  | 
CN(CCCCNc1ncc(-c2ccccc2)o1)C1Cc2ccccc2C1 [Compound 9] | 9 ± 6% |  | 290 ± 30 nM |  |  | 
CN(CCCCNc1ncc2ccn(C)c2n1)C1Cc2ccccc2C1 [Compound 10] | 8 ± 3% |  |  |  |  | 
Cc1cc(C)n2nc(NCCCCN(C)C3Cc4ccccc4C3)nc2n1 [Compound 11] | 4 ± 4% |  | 430 ± 50 nM |  |  | 
CCCCCC(=O)Nc1nc2c(C)cccc2s1 [Compound 12] |  | 8100 ± 3800 nM |  |  |  | D2R % displacement at 10 μM [2]: 1±2%
CNC(=O)CCCCN(C)C1Cc2ccccc2C1 [Compound 13] | 5±2% |  | 5000 ± 1300 nM |  |  | activity for the A2AAR (in words) ([1]; binding assay): no activity
COc1cccc2sc(NC(=O)CCCCN(C)C3Cc4ccccc4C3)nc12 [Compound 18] |  | 370 ± 50 nM | 390 ± 30 nM | 26000 ± 14000 nM | 89 ± 18% | A1AR % displacement at 10 µM [4]: 18 ± 3%
CN(CCCCC(=O)Nc1nc2c(Cl)cccc2s1)C1Cc2ccccc2C1 [Compound 19] |  | 420 ± 40 nM | 510 ± 50 nM | 23000 ± 9000 nM | 82 ± 22% | 
CN(CCCCC(=O)Nc1nc2c(Br)cccc2s1)C1Cc2ccccc2C1 [Compound 20] |  | 190 ± 30 nM | 340 ± 30 nM | 1500 ± 20 nM | 62 ± 9% | Kb [5]: 320 ± 30 nM; improvement of A2AAR affinity over compound 2 ([1]; relative to 2): > 6 fold
CCN(CCCCC(=O)Nc1nc2c(OC)cccc2s1)C1Cc2ccccc2C1 [Compound 21] |  | 630 ± 80 nM | 330 ± 20 nM |  |  | 
CCCN(CCCCC(=O)Nc1nc2c(F)cccc2s1)C1Cc2ccccc2C1 [Compound 23] |  | 2900 ± 600 nM | 200 ± 20 nM |  |  | 
CCCN(CCCCC(=O)Nc1nc2c(CC)cccc2s1)C1Cc2ccccc2C1 [Compound 24] |  | 11000 ± 3000 nM | 820 ± 180 nM |  |  | 
CCCN(CCCCC(=O)Nc1nc2c(C)cccc2s1)C1Cc2ccccc2C1 [Compound 25] |  | 990 ± 240 nM | 340 nM | 750 ± 70 nM | 81 ± 5% | 
CCCN(CCCCC(=O)Nc1nc2c(OC)ccc(Cl)c2s1)C1Cc2ccccc2C1 [Compound 28] |  | 470 ± 110 nM | 900 ± 100 nM | 1200 ± 200 nM | 104 ± 6% | 
CCCN(CCCCC(=O)Nc1nc2c(OC)ccc(C)c2s1)C1Cc2ccccc2C1 [Compound 29] |  | 460 ± 40 nM | 670 ± 70 nM | 980 ± 10 nM | 105 ± 5% | Kb [5]: 1900 ± 700 nM
Cc1cccc2sc(NC(=O)CCCN(C)C3Cc4ccccc4C3)nc12 [Compound 31] |  | 1600 ± 300 nM | 630 ± 50 nM | 5200 ± 2600 nM | 88 ± 13% | 
CN(CCCC(=O)Nc1nc2c(Br)cccc2s1)C1Cc2ccccc2C1 [Compound 32] |  | 670 ± 110 nM | 880 ± 110 nM | 1200 ± 300 nM | 51 ± 4% | 
CN(CCC(=O)Nc1nc2c(Br)cccc2s1)C1Cc2ccccc2C1 [Compound 33] |  | 1100 ± 200 nM | 2200 ± 300 nM | 5000 ± 2800 nM | 81 ± 6% | 
COc1ccc(OC)c2sc(NC(=O)CCN(C)C3Cc4ccccc4C3)nc12 [Compound 37] |  | 300 ± 50 nM | 1300 ± 200 nM | 31000 ± 12000 nM | 103 ± 3% | 
CCN(CCC(=O)Nc1nc2c(OC)ccc(C)c2s1)C1Cc2ccccc2C1 [Compound 39] |  | 1300 ± 200 nM | 2000 ± 300 nM | 28000 ± 9000 nM | 107 ± 6% | 
CCN(CCC(=O)Nc1nc2c(OC)ccc(OC)c2s1)C1Cc2ccccc2C1 [Compound 40] |  | 720 ± 70 nM | 1900 ± 300 nM | 8900 ± 2700 nM | 105 ± 5% | 
